Reference: ChEMBL document CHEMBL5137093, “Improving Drug Delivery While Tailoring Prodrug Activation to Modulate Cmax and Cmin by Optimization of (Carbonyl)oxyalkyl Linker-Based Prodrugs of Atazanavir” (J Med Chem, 2022)

Tests used:
[1] = Aqueous stability of the compound in acetate buffer at pH 4 assessed as compound half life measured after 24 hrs by UPLC analysis; format: physicochemical; settings: buffer, pH 4, 24 h, 24 h
[2] = Aqueous stability of the compound in phosphate buffer at pH 6.5 assessed as compound half life measured after 24 hrs by UPLC analysis; format: physicochemical; settings: buffer, pH 6.5, 24 h, 24 h
[3] = Aqueous solubility of compound at pH 1 by UPLC analysis; format: physicochemical; settings: buffer
[4] = Aqueous solubility of compound at pH 4 by UPLC analysis; format: physicochemical; settings: buffer
[5] = Cmax in Sprague-Dawley rat at 3 ml/kg,po measured upto 24 hrs by UPLC-MS/MS analysis; format: ADME; design: dose 3 ml/kg, time < 24 hrs, route po; settings: in vivo, 24 h
[6] = Tmax in Sprague-Dawley rat at 3 ml/kg,po measured upto 24 hrs by UPLC-MS/MS analysis; format: ADME; settings: in vivo, po, 24 h
[7] = AUClast in Sprague-Dawley rat at 3 ml/kg,po measured upto 24 hrs by UPLC-MS/MS analysis; format: ADME; design: time < 24 hrs, dose 3 ml/kg, route po; settings: in vivo, 24 h
[8] = Relative Cmax ratio of Atazanavir in Sprague-Dawley rat at 3 ml/kg,po measured upto 24 hrs by UPLC-MS/MS analysis; format: ADME; settings: in vivo
[9] = Relative AUC ratio of Atazanavir in Sprague-Dawley rat at 3 ml/kg,po measured upto 24 hrs by UPLC-MS/MS analysis; format: ADME; settings: in vivo
[10] = Fold ratio of total AUC of Atazanavir in Sprague-Dawley rat at 3 ml/kg,po measured upto 24 hrs by UPLC-MS/MS analysis; format: ADME; settings: in vivo
[11] = Ratio of Cmax/Cmin of Atazanavir in Sprague-Dawley rat at 3 ml/kg,po measured after 24 hrs by UPLC-MS/MS analysis; format: ADME; settings: in vivo
[12] = Ratio of AUC of Atazanavir in Sprague-Dawley rat at 3 ml/kg,po measured upto 24 hrs by UPLC-MS/MS analysis; format: ADME; settings: in vivo
[13] = molecular target: T1, UDP-glucuronosyltransferase 1A1 (Homo sapiens, UniProt P22309); assay: Inhibition of human recombinant UGT1A1 using bilirubin as substrate incubated for 40 mins by LC-MS/MS analysis
T1 sequence (P22309 whole entry): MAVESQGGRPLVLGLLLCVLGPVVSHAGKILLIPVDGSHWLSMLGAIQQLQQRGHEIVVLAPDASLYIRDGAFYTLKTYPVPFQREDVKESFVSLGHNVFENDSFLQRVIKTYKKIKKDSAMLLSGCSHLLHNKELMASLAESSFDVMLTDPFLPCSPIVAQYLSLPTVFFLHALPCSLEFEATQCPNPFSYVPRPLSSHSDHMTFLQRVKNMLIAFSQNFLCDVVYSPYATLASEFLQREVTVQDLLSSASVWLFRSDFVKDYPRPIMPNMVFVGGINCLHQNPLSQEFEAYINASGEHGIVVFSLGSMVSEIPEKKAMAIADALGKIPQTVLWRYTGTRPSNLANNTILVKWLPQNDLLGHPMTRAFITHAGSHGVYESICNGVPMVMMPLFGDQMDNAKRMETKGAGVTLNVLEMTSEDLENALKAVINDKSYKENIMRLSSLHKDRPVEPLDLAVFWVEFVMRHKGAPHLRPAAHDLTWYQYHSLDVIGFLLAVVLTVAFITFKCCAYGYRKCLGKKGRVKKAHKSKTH

[14] = molecular target: T1, UDP-glucuronosyltransferase 1A1; assay: Inhibition of UGT1A1 in human liver microsomes using beta-estradiol as substrate incubated for 40 mins by LC-MS/MS analysis; design: species or system Microsome
[15] = Cmax in Sprague-Dawley rat at 25 ml/kg,po measured upto 24 hrs by UPLC-MS/MS analysis; format: ADME; design: time < 24 hrs, dose 25 ml/kg, route po; settings: in vivo
[16] = Tmax in Sprague-Dawley rat at 25 ml/kg,po measured upto 24 hrs by UPLC-MS/MS analysis; format: ADME; settings: in vivo
[17] = AUClast in Sprague-Dawley rat at 25 ml/kg,po measured upto 24 hrs by UPLC-MS/MS analysis; format: ADME; design: time < 24 hrs, dose 25 ml/kg, route po; settings: in vivo
[18] = Relative Cmax ratio of Atazanavir in Sprague-Dawley rat at 25 ml/kg,po measured upto 24 hrs by UPLC-MS/MS analysis; format: ADME; settings: in vivo
[19] = Relative AUC ratio of Atazanavir in Sprague-Dawley rat at 25 ml/kg,po measured upto 24 hrs by UPLC-MS/MS analysis; format: ADME; settings: in vivo
[20] = Fold ratio of total AUC of Atazanavir in Sprague-Dawley rat at 25 ml/kg,po measured upto 24 hrs by UPLC-MS/MS analysis; format: ADME; settings: in vivo
[21] = Ratio of Cmax/Cmin of Atazanavir in Sprague-Dawley rat at 25 ml/kg,po measured after 24 hrs by UPLC-MS/MS analysis; format: ADME; settings: in vivo
[22] = Ratio of AUC of Atazanavir in Sprague-Dawley rat at 25 ml/kg,po measured upto 24 hrs by UPLC-MS/MS analysis; format: ADME; settings: in vivo
[23] = Cmax in Sprague-Dawley rat at 1 ml/kg,iv measured upto 24 hrs by UPLC-MS/MS analysis; format: ADME; design: dose 1 ml/kg, time < 24 hrs, route iv; settings: in vivo
[24] = AUClast in Sprague-Dawley rat at 1 ml/kg,iv measured upto 24 hrs by UPLC-MS/MS analysis; format: ADME; design: dose 1 ml/kg, time < 24 hrs, route iv; settings: in vivo
[25] = Clearance in Sprague-Dawley rat at 1 ml/kg,iv measured upto 24 hrs by UPLC-MS/MS analysis; format: ADME; settings: in vivo
[26] = Half life in Sprague-Dawley rat at 1 ml/kg,iv measured upto 24 hrs by UPLC-MS/MS analysis; format: ADME; settings: in vivo
[27] = Volume of distribution at steady state in Sprague-Dawley rat at 1 ml/kg,iv measured upto 24 hrs by UPLC-MS/MS analysis; format: ADME; settings: in vivo, read-out: Vdss
[28] = Relative Cmax ratio of Atazanavir in Sprague-Dawley rat at 1 ml/kg,iv measured upto 24 hrs by UPLC-MS/MS analysis; format: ADME; settings: in vivo
[29] = Relative AUC ratio of Atazanavir in Sprague-Dawley rat at 1 ml/kg,iv measured upto 24 hrs by UPLC-MS/MS analysis; format: ADME; settings: in vivo
[30] = Fold ratio of total AUC of Atazanavir in Sprague-Dawley rat at 1 ml/kg,iv measured upto 24 hrs by UPLC-MS/MS analysis; format: ADME; settings: in vivo
[31] = Ratio of Cmax/Cmin of Atazanavir in Sprague-Dawley rat at 1 ml/kg,iv measured after 24 hrs by UPLC-MS/MS analysis; format: ADME; settings: in vivo
[32] = Ratio of AUC of Atazanavir in Sprague-Dawley rat at 1 ml/kg,iv measured upto 24 hrs by UPLC-MS/MS analysis; format: ADME; settings: in vivo
[33] = molecular target: Voltage-gated inwardly rectifying potassium channel KCNH2 (Homo sapiens, UniProt Q12809); assay: Inhibition of human ERG by patch-clamp assay; format: toxicity
Chain of Voltage-gated inwardly rectifying potassium channel KCNH2 (Q12809 whole entry): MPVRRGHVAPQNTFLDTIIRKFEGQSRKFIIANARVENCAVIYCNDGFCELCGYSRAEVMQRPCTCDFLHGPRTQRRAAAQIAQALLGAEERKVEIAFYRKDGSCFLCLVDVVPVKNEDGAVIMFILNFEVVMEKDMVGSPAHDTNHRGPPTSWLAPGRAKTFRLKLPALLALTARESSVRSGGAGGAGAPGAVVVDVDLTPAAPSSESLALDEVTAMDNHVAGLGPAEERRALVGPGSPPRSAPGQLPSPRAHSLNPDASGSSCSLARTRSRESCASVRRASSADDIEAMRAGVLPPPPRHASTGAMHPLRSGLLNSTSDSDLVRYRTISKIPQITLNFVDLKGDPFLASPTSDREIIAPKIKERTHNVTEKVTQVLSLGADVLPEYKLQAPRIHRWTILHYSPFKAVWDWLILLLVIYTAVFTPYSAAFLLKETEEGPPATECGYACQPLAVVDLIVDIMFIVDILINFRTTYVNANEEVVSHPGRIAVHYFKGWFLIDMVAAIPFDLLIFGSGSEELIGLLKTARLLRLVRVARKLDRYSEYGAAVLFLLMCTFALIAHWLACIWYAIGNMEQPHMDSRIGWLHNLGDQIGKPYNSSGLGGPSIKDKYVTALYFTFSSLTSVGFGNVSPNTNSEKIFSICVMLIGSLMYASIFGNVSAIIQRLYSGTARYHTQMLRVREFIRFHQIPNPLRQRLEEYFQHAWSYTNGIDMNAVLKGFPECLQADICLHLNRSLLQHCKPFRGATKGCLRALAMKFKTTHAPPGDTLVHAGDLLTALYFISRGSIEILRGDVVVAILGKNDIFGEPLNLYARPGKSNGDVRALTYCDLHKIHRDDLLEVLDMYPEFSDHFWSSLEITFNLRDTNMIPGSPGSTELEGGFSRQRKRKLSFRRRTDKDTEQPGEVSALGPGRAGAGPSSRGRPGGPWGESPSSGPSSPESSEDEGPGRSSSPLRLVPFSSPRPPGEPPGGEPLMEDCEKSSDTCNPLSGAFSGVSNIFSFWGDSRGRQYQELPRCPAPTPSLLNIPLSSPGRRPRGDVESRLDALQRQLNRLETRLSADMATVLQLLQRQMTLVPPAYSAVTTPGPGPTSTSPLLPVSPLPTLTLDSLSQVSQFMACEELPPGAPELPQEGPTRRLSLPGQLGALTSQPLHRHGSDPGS

**Q.** Which results are given for `COC(=O)N[C@H](C(=O)N[C@@H](Cc1ccccc1)[C@H](CN(Cc1ccc(-c2ccccn2)cc1)NC(=O)[C@@H](NC(=O)OC)C(C)(C)C)OC(=O)OC(OC(=O)[C@H](N)C(C)C)C(C)C)C(C)(C)C` (stereo in doubt; 5j)?
**A.** t1/2 [1]: 334.3 h; t1/2 [2]: 15.3 h; solubility [3]: > 1900 µg/mL; solubility [4]: > 1900 µg/mL; Cmax [5]: 93 nM; Tmax [6]: 0.4 h; AUClast [7]: 0.12 µM·h; Ratio [8]: 8.2; Ratio [9]: 17.7; Ratio [10]: 18; Ratio [11]: 86.9; Ratio [12]: 0.02; IC50 [13]: 1000 nM; IC50 [14]: 2100 nM; Cmax [15]: 123 nM; Tmax [16]: 2.3 h; AUC(0-t) at 24 h [17]: 1.23 µM·h; Ratio [18]: 1; Ratio [19]: 1.88; Ratio [20]: 1.94; Ratio [21]: 27.8; Ratio [22]: 0.03; Cmax [23]: 371 nM; AUC(0-t) at 24 h [24]: 0.356 µM·h; clearance [25]: 47 mL/min/kg; half-life [26]: 4 h; Vd [27]: 7.7 L/kg; Ratio [28]: 1.01; Ratio [29]: 7.3; Ratio [30]: 7.8; Ratio [31]: 431.7; Ratio [32]: 0.08; IC50 [33]: 8800 nM
